{
  "source": "patent US20090312413A1",
  "about": "“Composition Comprising Tanshinone Compounds Isolated From The Extract Of Salviae Miltiorrhizae Radix For Treating Or Preventing Cognitive Dysfunction And The Use Thereof” (DIGITAL BIOTECH CO., LTD., priority 2005, published 2009)",
  "key": {"[1]": {"system": "HT 22 mouse neuronal cell line", "experiment": "Inhibition test of beta amyloid toxicity (MTT)", "format": "cell-based", "details": "HT22 cells, 25 μM aggregated beta amyloid, 18 hours", "description": "HT 22 mouse neuronal cell line was incubated in DMEM (Dulbecco's Modified Eagle's Medium, Gibco-BRL) medium supplemented with 10% FBS (Fetal Bovine Serum, Hyclone) and 1% penicillin/streptomycin (Sigma Co.) Prior to test, HT22 cell was incubated on 96 well plates with a density of 5×10^3 cell/well and further incubated in serum free DMEM medium for 1 hour before the treatment of test sample. Various concentration of diethyl ether extract prepared in Example 1 used as a test sample was added thereto and incubated for 1 hour. Aggregated beta amyloid (US peptide) was treated thereto to the concentration of 25 μM and incubated for 18 hours to induce cell necrosis. 5 mg/ml of MTT (3-(4,5-dimethyl-2-thiazolyl)-2,5-diphenyl-2H-tetrazolium bromide) solution was added each well with 15 μl/well and the well was incubated for 4 hours. Dissolving buffer solution (10% SDS, 50% dimethyl formamide, pH 4.7) was added to each well with 100 μl/well and reacted for overnight. 18 hours after the reaction, the absorbance of solution was determined by microplate reader (SAFIRE, TECAN) at 570 nm/630 nm wavelength (Gillardon, F. et al., Brain Research, 706(1) pp 169-172, 1996)."}, "[2]": {"experiment": "Oral administration toxicity test", "format": "in vivo", "details": "2000 mg/kg"}, "[3]": {"system": "mice directly treated with beta amyloid", "experiment": "AD acute model, Y maze test", "format": "in vivo, mouse", "details": "50 mg/kg oral, mice given beta amyloid intracerebro-ventricularly", "description": "For passive avoidance test, male ICR mouse weighing 25 g purchased from Samtaco Co. was bred with five mice per cage and the cage was kept with following condition maintaining the temperature of 22±2° C. and the relative humidity of […] under the regularly controlled light/dark condition with an interval of 12 hours. Synthetic beta amyloid 1-42 (BACHEM) was dissolved in DMSO in order to be 250 μM solution and diluted with PBS to 10 nM and aggregated at 37° C. for four days (Passive Avoidance test) or six days (Y maze test). Aggregated beta amyloid 1-42 was administrated into the mice according to the procedure disclosed in the literature (Lausen & Belknap, J. Pharmacol. Methods, 16 pp 355-357, 1986). 50 μl of aggregated beta amyloid 1-42 was administrated into the 2.4 mm depth of bregma region with 50 μl of Hamilton micro-syringe equipped with 26-gauge needle. The behavior tests were divided into Y maze test and PA (passive avoidance) test after the beta amyloid administration. […] The entering order of mice in the pathway was observed and the entering latency time was determined when four limbs was entered within the pathway. To determine the spatial memory, the determined spontaneous alteration behavior was calculated by following empirical formula 1 and the actual alteration was assigned to one time at the time that mice was entered three pathways continuously. […]"}, "[4]": {"system": "mice administered aggregated beta amyloid 1-42", "experiment": "AD acute model, passive avoidance test", "format": "in vivo, mouse", "details": "oral, mice given beta amyloid, p<0.05", "description": "For passive avoidance test, male ICR mouse weighing 25 g purchased from Samtaco Co. was bred with five mice per cage and the cage was kept with following condition maintaining the temperature of 22±2° C. and the relative humidity of […] under the regularly controlled light/dark condition with an interval of 12 hours.\nSynthetic beta amyloid 1-42 (BACHEM) was dissolved in DMSO in order to be 250 μM solution and diluted with PBS to 10 nM and aggregated at 37° C. for four days (Passive Avoidance test) or six days (Y maze test).\nAggregated beta amyloid 1-42 was administrated into the mice according to the procedure disclosed in the literature (Lausen & Belknap, J. Pharmacol. Methods, 16 pp 355-357, 1986).\n50 μl of aggregated beta amyloid 1-42 was administrated into the 2.4 mm depth of bregma region with 50 μl of Hamilton micro-syringe equipped with 26-gauge needle. The behavior tests were divided into Y maze test and PA (passive avoidance) test after the beta amyloid administration. Y maze test was performed 2 days after the administration and PA test was 3 days after the administration. Each test was done with more than 10 mice. […]\nAt 24 hours after the training session, the identical experiment was performed again with mouse to measure the latency time staying at the light chamber. […] Latency to enter the dark compartment from the light compartment was measured as a step through latency. […]"}, "[5]": {"system": "mouse brain", "experiment": "Brain staining of AD acute model (Cresyl violet, ChAT, GFAP)", "format": "in vivo", "description": "At the end of the experiment, the brain of animals was delivered and kept in 10% formalin solution to staining. At the end of behavior test, the mouse brain was delivered, kept in 10% formalin solution for 24 hours and transferred to 30% sucrose solution. After fixing the brain, the brain was performed to coronal section with a width of 40 μm using by cryostat. The sliced brain was performed to Cresyl violet staining to confirm the injury of brain neuronal cell, to ChAT staining to confirm the injury of cholinergic neuron and to GFAP staining to confirm the activation of astrocytes. After the tissue was placed on gelatin-coated slide to stain with Cresyl violet, the tissue was performed to dehydration using ethanol. The tissue was incubated for about 3 minutes and dipped into 0.5% Cresyl Violet solution for 30 mins. After the solution was performed to […] with ethanol, the slice was dipped into xylene for 3 minutes. The dried tissue was fixed with Canada balsam mounting medium. In the washing process between all the antibody incubation, PBST was used to washing tissues. To reduce the activity of endogenous peroxidase activity, the tissue was pretreated with 0.5% H2O2 and then treated with 5% FBS at room temperature for 1 hour to remove non-specific binding. The tissue was incubated at 4° C. for overnight using by mouse anti-GFAP (1:200) monoclonal antibody and goat-anti-ChAT (1:200) polyclonal antibody. A horse radish peroxidase-conjugated anti-mouse IgG and anti-goat IgG secondary antibody (1:600) was incubated at room temperature for 1 hour and detected by DAB kit after the incubation."}},
  "data": [
    {"smiles": "CC(C)C1=Cc2ccc3c(c2C(=O)C1=O)CCCC3(C)C", "note": "[Miltirone]", "values": [
      {"measurement": "inhibitory effect on the toxicity of beta amyloid", "setting": "[1]", "result": "did not inhibit"}
    ]},
    {"smiles": "CC(C)C1=Cc2ccc3c(c2C(=O)C1=O)C=CCC3(C)C", "note": "[1,2-Didehydromiltirone, 1,2-didehydromiltirone]", "values": [
      {"measurement": "inhibitory effect on the toxicity of beta amyloid", "setting": "[1]", "result": "did not inhibit"}
    ]},
    {"smiles": "Cc1cccc2c3c(ccc12)C1=C(C(=O)C3=O)[C@@H](C)CO1", "note": "[dihydrotanshinone I]", "values": [
      {"measurement": "inhibitory effect on the toxicity of beta amyloid", "setting": "[1]", "result": "did not show any inhibitory effect"}
    ]},
    {"smiles": "Cc1coc2c1C(=O)C(=O)c1c-2ccc2c1CCCC2(C)C", "note": "[tanshinone IIA]", "values": [
      {"measurement": "inhibitory effect on the toxicity of beta amyloid", "setting": "[1]", "result": "mere inhibitory effect"},
      {"measurement": "toxicity at oral administration test", "setting": "[2]", "result": "no toxicity"},
      {"measurement": "recovery of memory learning disorder (spontaneous alteration, Y maze)", "setting": "[3]", "result": "recovered"},
      {"measurement": "latency time (step through latency, passive avoidance)", "setting": "[4]", "result": "significantly increased"},
      {"measurement": "injury of cholinergic neuron caused by beta amyloid", "setting": "[5]; ChAT staining", "result": "recovered the injury of cholinergic neuron"},
      {"measurement": "injury of memory learning correlated with hippocampus injury (brain staining)", "setting": "[5]; Cresyl violet staining, mouse brain after beta amyloid", "result": "significantly recovered"},
      {"measurement": "activity of astrocyte caused by beta amyloid", "setting": "[5]; GFAP staining", "result": "reduced the increased activity of astrocyte"}
    ]},
    {"smiles": "Cc1coc2c1C(=O)C(=O)c1c-2ccc2c(C)cccc12", "note": "[tanshinone I]", "values": [
      {"measurement": "inhibitory effect on the toxicity of beta amyloid", "setting": "[1]", "result": "did not show any inhibitory effect"}
    ]}
  ]
}
